Experimental findings from patent publication US12540922B2, “Quantitative shotgun proteome, lipidome, and metabolome analysis by direct infusion” (Wisconsin Alumni Research Foundation, priority 2021, dated 2026) are described below.

For the assay, the system named is 293T cells (wild type or PPTC7 knockout). Put plainly: MitoTox screen: DI-SPA proteome quantification of toxin-treated cells. The assay is classed as cell-based, human. The conditions noted are these: 6-hour compound treatments, DMEM or HPLM. The protocol:
Wild type or PPTC7 knockout (KO) cells were grown in either standard or modified media, DMEM or HPLM (Cantor et al., Cell, 169, 258-272.e17 (2017)), respectively, and treated in triplicate with one of nine mitochondrial toxins or two controls for a total 132 samples. These conditions were chosen because of their known effects on metabolism and mitochondria, which were hypothesized to induce changes in proteins and thus provide a suitable testbed for DI-SPA. Again, a peptide discovery experiment (like FIG. 7) was first performed to identify peptides for subsequent targeted quantification experiments, in which 1,384 peptides were identified (peptide-level FDR=0.93%) from 451 proteins (protein-level FDR=2.8%). Next, a quantitative targeted DI-SPA assay was generated to expeditiously monitor the most intense peptide from each of the 451 proteins. This method was used to analyze all 132 samples, generating 132 proteotypes and requiring only 120 seconds of MS data collection per sample. A total of 341 out of 451 protein targets were quantified across all 132 samples in only 4.4 hours of total MS data acquisition, which corresponds to over 45,000 proteins quantified at a rate of nearly three proteins per second (FIG. 4, panel B).
MitoTox Experiment—Cell Culture. 293T cells were purchased from ATCC (#CRL-3216) and maintained in DMEM (4.5 g/L glucose, 4 mM glutamine, no pyruvate—Thermo #11965092) supplemented with 10% fetal bovine serum (FBS) and 1× penicillin/streptomycin (100 U/mL final [c]). Human Plasma-Like Medium (HPLM) was supplemented with 10% dialyzed FBS (Thermo #26400036) and 1× penicillin/streptomycin (100 U/mL final [c]). For heavy labeling, 293T cells were labeled using the DMEM-based SILAC protein quantitation kit (Thermo #A33972). Briefly, cells were grown for at least 5 passages SILAC-compatible DMEM supplemented with 10% dialyzed FBS, ^13C ^15N2 L-lysine-2HCl and ^13C6 ^15N4 L-arginine HCl, and 1× penicillin/streptomycin. SILAC labeling was confirmed through mass spectrometry analysis and ratios of light/heavy cells were titrated based on analysis of median ratios observed in the controls. All cells were grown in a tissue culture grade incubator held at 37° C. supplemented with 5% CO2. Cells were verified as mycoplasma negative via the e-Myco Mycoplasma PCR Detection Kit (Bulldog Bio #25233).
MitoTox screen conditions. 293T or PPTC7 knockout 293T cells were split and plated in 24 well plates at 7.5×10^4 cells per well. Cells were allowed to adhere overnight, and media was replaced with fresh DMEM or HPLM for a total of 24 hours prior to collection of cells. Compound treatments were grouped into 6-hour or 24-hour incubations, with 6-hour compound treatments occurring in the last 6 hours of the 24-hour media change, and 24-hour compound treatments occurring for the entire 24 hours of media treatment. Compounds used for 6 hours include antimycin A (5 μM final [c], Sigma #A8674), rotenone (5 μM final [c], Sigma #R8875), oligomycin (2.5 μM final [c], Sigma #04876), CCCP (10 μM final [c], Sigma #C2759), valinomycin (1 μM final [c], Sigma #V0627) and CDDO (2.5 μM final [c], Cayman Chemical #11883)). Compounds used for 24 hours include doxycycline (10 μg/ml final [c], VWR #75844-668) and Deferoxamine (DFO, 100 μM final [c], Sigma #D9533). One compound, 4-nitrobenzoate (4-NB, 1 mM final [c], Sigma #461091), requires 6+ days for efficacy (Forsman et al., Nature Chemical Biology, 6, 515-517 (2010)), and thus cells were treated with this compound for 5 days before being split to 7.5×10^4 cells per well and grouped with the 24 hour incubations. Control, untreated 293T cells were split and harvested with both the 6-hour and 24-hour compound treatment sets. All conditions were plated and collected in 3 replicate wells. […]
Consider `N#CC(C#N)=NNc1cccc(Cl)c1` [CCCP], for which the “proteome perturbation (UMAP of proteotypes) in relation to 6 h controls” value (from here on “proteome perturbation”) is listed as “produced more (and comparable) proteome rearrangement”.
As for `CC1(C)CC[C@]2(C(=O)O)CC[C@]3(C)[C@H](C(=O)C=C4[C@@]5(C)C=C(C#N)C(=O)C(C)(C)[C@@H]5CC[C@]43C)[C@@H]2C1` [CDDO], the “proteome perturbation” value is listed as “media dependent”.
Take `CC(C)[C@@H]1NC(=O)[C@H](C)OC(=O)[C@@H](C(C)C)NC(=O)[C@@H](C(C)C)OC(=O)[C@H](C(C)C)NC(=O)[C@H](C)OC(=O)[C@@H](C(C)C)NC(=O)[C@@H](C(C)C)OC(=O)[C@H](C(C)C)NC(=O)[C@H](C)OC(=O)[C@@H](C(C)C)NC(=O)[C@@H](C(C)C)OC1=O` [Valinomycin, valinomycin]: the “proteome perturbation” value is recorded as “induced the most profound proteome perturbation relative to controls”.
The same measure for `CC[C@H]1/C=C/C=C/C[C@@H](C)[C@H](O)[C@@](C)(O)C(=O)[C@@H](C)[C@H](O)[C@@H](C)C(=O)[C@@H](C)[C@H](O)[C@@H](C)/C=C/C(=O)O[C@@H]2[C@H](C)[C@H](CC1)O[C@]1(CC[C@H](C)[C@H](C[C@@H](C)O)O1)[C@H]2C` [oligomycin]: “produced more (and comparable) proteome rearrangement”.
The same measure for `C=C(C)[C@H]1Cc2c(ccc3c2O[C@@H]2COc4cc(OC)c(OC)cc4[C@@H]2C3=O)O1` [rotenone]: “most similar”; for antimycin A: “most similar”.
